In ChEMBL document CHEMBL4308841, “Synthesis, in vitro antiproliferative activity, and kinase inhibitory effects of pyrazole-containing diarylureas and diarylamides” (Eur J Med Chem, 2018):

Columns and labels:
CCRF-CEM = test: Growth inhibition of human CCRF-CEM cells assessed as cell growth at 100 uM incubated for 48 hrs by sulforhodamine B assay relative to control; format: functional; settings: read-out: Activity
BT-549 [1] = test: Growth inhibition of human BT549 cells assessed as cell growth at 1 uM incubated for 48 hrs by sulforhodamine B assay relative to control; format: functional; settings: BT-549, 48 h, read-out: Activity
786-0 [2] = test: Growth inhibition of human 786-0 cells incubated for 48 hrs by sulforhodamine B assay; format: functional, cell-based; settings: 786-0, 48 h
PC-3 = test: Growth inhibition of human PC3 cells incubated for 48 hrs by sulforhodamine B assay; format: functional, cell-based; settings: PC-3, 48 h
HCC 2998 = test: Growth inhibition of human HCC2998 cells assessed as cell growth at 100 uM incubated for 48 hrs by sulforhodamine B assay relative to control; format: functional; settings: HCC 2998, 48 h, read-out: Activity
SW-620 = test: Growth inhibition of human SW620 cells assessed as cell growth at 0.01 uM incubated for 48 hrs by sulforhodamine B assay relative to control; format: functional; settings: SW-620, 48 h, read-out: Activity
786-0 [3] = test: Growth inhibition of human 786-0 cells assessed as cell growth at 0.01 uM incubated for 48 hrs by sulforhodamine B assay relative to control; format: functional; settings: 786-0, 48 h, read-out: Activity
NCI-H460 = test: Growth inhibition of human NCI-H460 cells incubated for 48 hrs by sulforhodamine B assay; format: functional, cell-based; settings: NCI-H460, 48 h
BT-549 [4] = test: Growth inhibition of human BT549 cells assessed as cell growth at 0.01 uM incubated for 48 hrs by sulforhodamine B assay relative to control; format: functional; settings: BT-549, 48 h, read-out: Activity
SR = test: Growth inhibition of human SR cells incubated for 48 hrs by sulforhodamine B assay; format: functional, cell-based
HL-60(TB) = test: Growth inhibition of human HL-60(TB) cells assessed as cell growth at 0.1 uM incubated for 48 hrs by sulforhodamine B assay relative to control; format: functional; settings: HL-60, 48 h, read-out: Activity
M14 = test: Growth inhibition of human M14 cells incubated for 48 hrs by sulforhodamine B assay; format: functional, cell-based; settings: M14, 48 h
A498 [5] = test: Growth inhibition of human A498 cells incubated for 48 hrs by sulforhodamine B assay; format: functional, cell-based; settings: A498, 48 h
RXF 393 [6] = test: Growth inhibition of human RXF393 cells assessed as cell growth at 1 uM incubated for 48 hrs by sulforhodamine B assay relative to control; format: functional; settings: RXF 393, 48 h, read-out: Activity
SN12C = test: Growth inhibition of human SN12C cells assessed as cell growth at 100 uM incubated for 48 hrs by sulforhodamine B assay relative to control; format: functional; settings: read-out: Activity
RPMI-8226 = test: Growth inhibition of human RPMI8226 cells assessed as cell growth at 1 uM incubated for 48 hrs by sulforhodamine B assay relative to control; format: functional; settings: RPMI-8226, 48 h, read-out: Activity
MDA-MB-468 = test: Growth inhibition of human MDA-MB-468 cells assessed as cell growth at 0.01 uM incubated for 48 hrs by sulforhodamine B assay relative to control; format: functional; settings: MDA-MB-468, 48 h, read-out: Activity
OVCAR-3 = test: Growth inhibition of human OVCAR3 cells incubated for 48 hrs by sulforhodamine B assay; format: functional, cell-based; settings: OVCAR-3, 48 h
ACHN = test: Growth inhibition of human ACHN cells assessed as cell growth at 1 uM incubated for 48 hrs by sulforhodamine B assay relative to control; format: functional; settings: read-out: Activity
MCF7 = test: Growth inhibition of human MCF7 cells assessed as cell growth at 1 uM incubated for 48 hrs by sulforhodamine B assay relative to control; format: functional; settings: MCF7, 48 h, read-out: Activity
IGROV-1 = test: Growth inhibition of human IGROV1 cells incubated for 48 hrs by sulforhodamine B assay; format: functional, cell-based; settings: IGROV-1, 48 h
SF-539 = test: Growth inhibition of human SF539 cells assessed as cell growth at 1 uM incubated for 48 hrs by sulforhodamine B assay relative to control; format: functional; settings: SF-539, 48 h, read-out: Activity
NCI/ADR-RES = test: Growth inhibition of human NCI/ADR-RES cells incubated for 48 hrs by sulforhodamine B assay; format: functional, cell-based
RXF 393 [7] = test: Growth inhibition of human RXF393 cells assessed as cell growth at 0.1 uM incubated for 48 hrs by sulforhodamine B assay relative to control; format: functional; settings: RXF 393, 48 h, read-out: Activity
A498 [8] = test: Growth inhibition of human A498 cells assessed as cell growth at 0.1 uM incubated for 48 hrs by sulforhodamine B assay relative to control; format: functional; settings: A498, 48 h, read-out: Activity
MOLT-4 = test: Growth inhibition of human MOLT4 cells assessed as cell growth at 1 uM incubated for 48 hrs by sulforhodamine B assay relative to control; format: functional; settings: MOLT-4, 48 h, read-out: Activity
UACC-257 = test: Growth inhibition of human UACC257 cells assessed as cell growth at 0.01 uM incubated for 48 hrs by sulforhodamine B assay relative to control; format: functional; settings: UACC-257, 48 h, read-out: Activity
HCT-116 = test: Growth inhibition of human HCT116 cells assessed as cell growth at 1 uM incubated for 48 hrs by sulforhodamine B assay relative to control; format: functional; settings: HCT-116, 48 h, read-out: Activity
[9] = read-out: LC50 (the source's name)
[10] = read-out: pLC50 (the source's name) (converted)

SMILES: COc1cc(Cl)cc(-c2nn(-c3cccc(NC(=O)Nc4cccc(C(F)(F)F)c4)c3)cc2-c2ccncc2)c1
- growth at 100 µM (CCRF-CEM): -18%
- growth at 1 µM (BT-549 [1]): 93%
- GI50 (786-0 [2]; read-out: GI50): 1.94 µM
- CC50 (786-0 [2]; [9]): 67.1 µM
- TGI (786-0 [2]; read-out: TGI): 57.5 µM
- GI50 (786-0 [2]; read-out: pGI50 (converted)): 1.95 µM
- CC50 (786-0 [2]; [10]): 67.6 µM
- TGI (786-0 [2]; read-out: pTGI (converted)): 6.76 µM
- IC50 (PC-3): 0.42 µM
- GI50 (PC-3; read-out: GI50): 0.417 µM
- CC50 (PC-3; [9]): > 100 µM
- TGI (PC-3; read-out: TGI): 32 µM
- GI50 (PC-3; read-out: pGI50 (converted)): 0.417 µM
- CC50 (PC-3; [10]): > 100 µM
- TGI (PC-3; read-out: pTGI (converted)): 3.24 µM
- growth at 100 µM (HCC 2998): -83%
- growth at 0.01 µM (SW-620): 103%
- growth at 0.01 µM (786-0 [3]): 99%
- GI50 (NCI-H460; read-out: GI50): 0.84 µM
- CC50 (NCI-H460; [9]): > 100 µM
- TGI (NCI-H460; read-out: TGI): 45.8 µM
- CC50 (NCI-H460; [10]): > 100 µM
- growth at 0.01 µM (BT-549 [4]): 107%
- GI50 (SR; read-out: GI50): 1.14 µM
- CC50 (SR; [9]): > 100 µM
- TGI (SR; read-out: TGI): 43.9 µM
- GI50 (SR; read-out: pGI50 (converted)): 1.15 µM
- CC50 (SR; [10]): > 100 µM
- TGI (SR; read-out: pTGI (converted)): 4.37 µM
- growth at 0.1 µM (HL-60(TB)): 98%
- GI50 (M14; read-out: GI50): 1.34 µM
- CC50 (M14; [9]): 15.3 µM
- TGI (M14; read-out: TGI): 30.5 µM
- GI50 (M14; read-out: pGI50 (converted)): 1.35 µM
- CC50 (M14; [10]): 16.2 µM
- TGI (M14; read-out: pTGI (converted)): 3.98 µM
- GI50 (A498 [5]; read-out: GI50): 2.25 µM
- CC50 (A498 [5]; [9]): > 100 µM
- TGI (A498 [5]; read-out: TGI): 25.5 µM
- GI50 (A498 [5]; read-out: pGI50 (converted)): 2.24 µM
- CC50 (A498 [5]; [10]): > 100 µM
- TGI (A498 [5]; read-out: pTGI (converted)): 25.7 µM
- growth at 1 µM (RXF 393 [6]): 68%
- growth at 100 µM (SN12C): -20%
- growth at 1 µM (RPMI-8226): 22%
- growth at 0.01 µM (MDA-MB-468): 94%
- IC50 (OVCAR-3): 0.59 µM
- GI50 (OVCAR-3; read-out: GI50): 0.502 µM
- CC50 (OVCAR-3; [9]): > 100 µM
- TGI (OVCAR-3; read-out: TGI): 45.7 µM
- GI50 (OVCAR-3; read-out: pGI50 (converted)): 0.589 µM
- CC50 (OVCAR-3; [10]): > 100 µM
- TGI (OVCAR-3; read-out: pTGI (converted)): 4.57 µM
- growth at 1 µM (ACHN): 65%
- growth at 1 µM (MCF7): 62%
- GI50 (IGROV-1; read-out: GI50): 2.56 µM
- CC50 (IGROV-1; [9]): > 100 µM
- TGI (IGROV-1; read-out: TGI): 22.7 µM
- GI50 (IGROV-1; read-out: pGI50 (converted)): 2.88 µM
- CC50 (IGROV-1; [10]): > 100 µM
- TGI (IGROV-1; read-out: pTGI (converted)): 22.9 µM
- growth at 1 µM (SF-539): 84%
- GI50 (NCI/ADR-RES; read-out: GI50): 1.65 µM
- CC50 (NCI/ADR-RES; [9]): > 100 µM
- TGI (NCI/ADR-RES; read-out: TGI): 75.1 µM
- GI50 (NCI/ADR-RES; read-out: pGI50 (converted)): 1.66 µM
- CC50 (NCI/ADR-RES; [10]): > 100 µM
- TGI (NCI/ADR-RES; read-out: pTGI (converted)): 7.76 µM
- growth at 0.1 µM (RXF 393 [7]): 92%
- growth at 0.1 µM (A498 [8]): 92%
- growth at 1 µM (MOLT-4): 55%
- growth at 0.01 µM (UACC-257): 90%
- growth at 1 µM (HCT-116): 43%
